Test results reported in the pKa sets of Baltruschat and Czodrowski (2020).

settings: acidic group

SMILES | pKa
NNC(=O)C(F)(F)C(F)(F)F | 7.92
CN(C)c1ccc(/C=N/O)cc1 | 11.3
O=C(O)/C=C\C(=O)NOCc1ccccc1 | 3.8
O=C(O)CCCC(=O)NOCc1ccccc1 | 4.7
[NH3+]C(c1cccc(O)c1O)P(=O)([O-])[O-] (centres undefined) | 9.44
Nn1cnnc1 | 11.8
CCOC(=O)c1ccccc1-n1nc(O)c(CC)c1C | 12.4
O=C(O)Cc1ccccc1 | 4.27
CC(P)C(=O)O (centres undefined) | 4.15
N#Cc1cccc(-c2nnn[nH]2)c1 | 3.45
O=C(O)c1ccc(Br)c([N+](=O)[O-])c1 | 3.24
O=c1cc(-c2ccccc2)oc2ccc(O)cc12 | 9.09
[O-]c1cc(O)nc[nH+]1 | 5.4
[NH3+]CCc1nnn[nH]1 | 3.99
O=C(O)C[Se]c1ccccc1[N+](=O)[O-] | 3.45
Nc1ccc(S(=O)(=O)Nc2ccc(Br)nc2)cc1 | 7.12
Cc1ccc(CCC(=O)O)cc1 | 4.74
[NH3+][C@@H](Cc1c[nH]c[nH+]1)C(=O)NCC(=O)O | 2.4
O=C1CNC(=O)N1 | 9.12
[NH3+]CCc1ccc(O)cc1 | 9.42
Cc1cccc(C)c1C(=O)O | 3.23

SMILES | pKa
O=C1CC(=O)NC(=S)N1 | 4.15
Cc1nc2c(O)ccc(O)c2n1C | 9.75
O=P1(O)CCCCC1 | 2.73
CC1(C)S[C@H]2[C@@H](NC(=O)Cc3ccc(O)cc3)C(=O)N2[C@@H]1C(=O)O | 2.62
COC(=O)c1ccc(O)c([N+](=O)[O-])c1 | 5.4
Cc1cccc([Se]CC(=O)O)c1 | 3.78
O=C1CCCC(=O)N1O | 7.6
N#CC(C#N)=NNc1ccccc1 | 6.55
O=C(O)[C@@H]1CC[C@@H](C(=O)O)[Se][Se]1 | 2.85
Nc1c(O)cccc1O | 9.3
CC(=O)C[N+](=O)[O-] | 5.1
[O-]c1nc(NO)cc[n+]1[C@H]1O[C@@H](CO)[C@H](O)[C@@H]1O | 10.5
NNC(=O)c1cccc(N)c1 | 12.4
NC(=O)[C@H]1CC(=O)N[C@@H]1C(=O)O | 3
SCC[NH2+]Cc1ccccc1 | 7.86
C[N+](C)(C)Cc1ccccc1O | 8.71
O=c1ccc(O)ccc1[O-] | 10.1
N#CC(C#N)=NNc1cccc(Cl)c1 | 6
C[n+]1cccc2ccc(O)cc21 | 5.56
CCC[NH2+]CCS | 7.92
N#CC(CCC(=O)O)c1ccccc1 (centres undefined) | 4.4

Second part, the compound after the results:

pKa | SMILES
2.8 | CC1(C)CCC(C(=O)O)=[N+]1[O-]
9.26 | CN1c2ccccc2Nc2c(O)cccc21
3.66 | Cc1csc(C(=O)O)c1
9.88 | Oc1ccc(F)cc1
6.64 | CC1(C)SC(=O)NC1=O
2.15 | O=C(O)C(CO)[NH2+]Cc1cc([N+](=O)[O-])ccc1O (centres undefined)
8.4 | Cn1c(CCl)nc2c(O)ccc(O)c21
8.94 | Cc1nc(-c2ccccc2)oc1O
3.53 | COCC(=O)O
8.91 | O=S(=O)([O-])c1ccc(O)cc1
4.6 | S=c1[nH]cnc2nn[nH]c12
7.31 | C[S+](C)c1ccc(O)cc1
11.7 | COc1cnccc1C(O)O
11.4 | C/C(=C(/S)CCO)N(C=O)Cc1cnc(C)nc1N
3 | O=C(O)/C=C\c1c[nH]c[nH+]1
8.78 | O/N=C1\CCCc2nonc21
4.4 | Cc1nc(NS(=O)(=O)c2ccc(N)cc2)no1
1.79 | O=C(O)c1ccc2ccccc2[nH+]1
11.5 | Cc1ccc(C(=S)Nc2ccccc2)cc1
10.1 | O/N=C/c1ccccn1
5.9 | O=C1c2ccccc2C(=O)C1Cc1ccccc1
11 | C/C(=N\O)C(=O)[N-]O
4.24 | O=C(O)Cc1cccc2ccccc12

pKa | SMILES
7.8 | O=c1oc2cc(O)ccc2cc1-c1ccccc1
2.85 | COCCNC(=S)S
4.03 | C/C(=C\Cl)C(=O)O
10.1 | Cc1cc(O)ccc1O
9.5 | CSc1ccc(O)cc1
13.1 | O=C(NCO)c1ccccc1
6 | N#Cc1c(-c2nc3cc(Cl)ccc3o2)c(=O)oc2cc(O)ccc12
9.14 | CCC(=O)c1cc(C(=O)c2ccccc2)n[nH]1
0.2 | O=C(O)Cc1[nH]c2ccccc2[nH+]1
3.62 | Cc1ccc(I)cc1C(=O)O
7.32 | CC(=O)N(c1ccccc1)c1nnc(S(N)(=O)=O)s1
-1.8 | Oc1cccn[nH+]1
4.85 | N#CCCN(CCC#N)c1nnn[nH]1
9.7 | CC1(C)C(=O)NC(=O)C1(C)C
7.33 | Brc1ccc2c(c1)C([P+](c1ccccc1)(c1ccccc1)c1ccccc1)c1ccccc1-2 (centres undefined)
9.53 | O=C1NC(=O)[C@@H]2CCC[C@H]12
3.9 | CN(C)c1cc[n+](O)cc1
6 | O=CC1c2ccccc2C(=O)c2ccccc21
5.13 | CC[N+](O)(CC)CC
3.71 | CC(=O)S
5.75 | C[NH+](C)Cc1cc([N+](=O)[O-])ccc1O
11.8 | OC(c1ccncc1)(c1ccncc1)c1ccncc1
8.67 | O=S(=O)(Cc1ccccc1)c1ncc[nH]1

same assay, conditions: basic group

pKa | SMILES
8.97 | CN(C)Cc1ccccc1
